# Data reported in the supplement of paper PMC7224384.
# Legend:
# MDA-MB-453 [1] = assay: drug sensitivity score (DSS), in combination with BLU9931 (DSS (weighted AUC score)); higher = more sensitive (stronger viability decrease); extreme values may be limits of the assay; conditions: BLU9931 100 nM; 72 h
# Procedure, shortened: (§1)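 Drug sensitivity scores come from a weighted area under a four-parameter logistic fit to percent viability, normalised per plate to control wells. Viability was based on cellular ATP read with CellTiterGlo 2.0 after 72 h at 37 °C, 5% CO2. Each 384-well plate carried FIMM Oncology set compounds in singlicate at five 10-fold dilutions, with 2000 MDA-MB-453 cells per well in medium with or without an FGFR4 inhibitor at 100 nM final.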
# MDA-MB-453 [2] = assay: drug sensitivity score (DSS), single agent (DSS (weighted AUC score)); higher = more sensitive (stronger viability decrease); extreme values may be limits of the assay; conditions: BLU9931 0 nM; 72 h
# Procedure, shortened: as §1
Compound,drug sensitivity score (MDA-MB-453 [1]),drug sensitivity score (MDA-MB-453 [2])
CC1(C)CNc2cc(NC(=O)c3cccnc3NCc3ccncc3)ccc21 [Motesanib],0.3,1
CCCN(CCC)C(=O)C1=Cc2ccc(-c3ccc(C(=O)N4CCCC4)cc3)cc2N=C(N)C1 [Motolimod],0,0.1
FC(F)(F)c1ccc(/C=C/c2nc(COc3ccc(CCCCn4ccnn4)cc3)co2)cc1 [Mubritinib],4,7.8
Cc1cc(OCc2nnc(SC3CCCC3)n2-c2cccnc2)ccc1-c1ccc(S(C)(=O)=O)cc1 [NMS-873],9.1,11.4
COc1ccc(-c2ccc3ncc4c(c3c2)n(-c2ccc(N3CCNCC3)c(C(F)(F)F)c2)c(=O)n4C)cn1 [NVP-BGT226],24.4,24.8
Cc1ccc(C(=O)Nc2cccc(C(F)(F)F)c2)cc1Nc1nc(-c2cccnc2)nc2c1cnn2C [NVP-BHG712],1.2,1.9
COc1cc2c(cc1OC(C)C)[C@H](c1ccc(Cl)cc1)N(c1ccc(N(C)C[C@H]3CC[C@H](N4CCN(C)C(=O)C4)CC3)cc1)C(=O)C2 [NVP-CGM097],8.5,7.9
CN[C@@H](C)C(=O)N[C@H](C(=O)N1CCC[C@H]1c1nc(C(=O)c2ccc(F)cc2)cs1)C1CCCCC1 [NVP-LCL161],8.1,8
Cn1c(Nc2ccc(C(F)(F)F)cc2)nc2cc(Oc3ccnc(-c4ncc(C(F)(F)F)[nH]4)c3)ccc21 [NVP-RAF265],1.1,1.7
CC(=O)c1cc2c(o1)C(=O)c1ccccc1C2=O [Napabucasin],0,0
CC1(C)CCC(c2ccc(Cl)cc2)=C(CN2CCN(c3ccc(C(=O)NS(=O)(=O)c4ccc(N[C@H](CCN5CCOCC5)CSc5ccccc5)c(S(=O)(=O)C(F)(F)F)c4)cc3)CC2)C1 [Navitoclax],2.4,0.3
CN1C(=O)N[C@H](Cc2c[nH]c3c(Cl)cccc23)C1=O [Necrostatin 2],0,0
O=c1ncn2nc(Sc3ccc(F)cc3F)ccc2c1-c1c(Cl)cccc1Cl [Neflamapimod],0,0
COc1nc(N)nc2c1ncn2[C@@H]1O[C@H](CO)[C@@H](O)[C@@H]1O [Nelarabine],1.5,1.3
CCOc1cc2ncc(C#N)c(Nc3ccc(OCc4ccccn4)c(Cl)c3)c2cc1NC(=O)/C=C/CN(C)C [Neratinib],17.9,15.4
Cc1cn(-c2cc(NC(=O)c3ccc(C)c(Nc4nccc(-c5cccnc5)n4)c3)cc(C(F)(F)F)c2)cn1 [Nilotinib],1.5,1.7
CC1(C)NC(=O)N(c2ccc([N+](=O)[O-])c(C(F)(F)F)c2)C1=O [Nilutamide],0,0
COC(=O)c1ccc2c(c1)NC(=O)/C2=C(\Nc1ccc(N(C)C(=O)CN2CCN(C)CC2)cc1)c1ccccc1 [Nintedanib],1.9,4.7
NC(=O)c1cccc2cn(-c3ccc([C@@H]4CCCNC4)cc3)nc12 [Niraparib],1.3,2.3
CC(O)c1cc(C(=O)N[C@@H](C)Cn2ccc(-c3ccc(C#N)c(Cl)c3)n2)n[nH]1 (stereo partly drawn) [ODM-201],0.3,1.1
CC(=O)c1cnc2ccc(-c3cc(Cl)c(O)c(Cl)c3)nc2c1N[C@H]1CC[C@H](CN(C)C)CC1 [OTS167],15.9,17.4
O=C(c1cc(Cc2n[nH]c(=O)c3ccccc23)ccc1F)N1CCN(C(=O)C2CC2)CC1 [Olaparib],0.5,1.7
C=CC(=O)Nc1cccc(Oc2nc(Nc3ccc(N4CCN(C)CC4)cc3)nc3ccsc23)c1 [Olmutinib],0.7,0.7
COC(=O)C[C@](O)(CCCC(C)(C)O)C(=O)O[C@@H]1C(OC)=C[C@]23CCCN2CCc2cc4c(cc2[C@H]13)OCO4 [Omacetaxine],20.5,22.1
CC1(C)CC[C@]2(NC(=O)C(C)(F)F)CC[C@]3(C)[C@H](C(=O)C=C4[C@@]5(C)C=C(C#N)C(=O)C(C)(C)[C@@H]5CC[C@]43C)[C@@H]2C1 [Omaveloxolone],13.5,14.3
COc1ncc(-c2ccc3nccc(-c4ccnnc4)c3c2)cc1NS(=O)(=O)c1ccc(F)cc1F [Omipalisib],25.1,23
CC(C)c1cc(C(=O)N2Cc3ccc(CN4CCN(C)CC4)cc3C2)c(O)cc1O [Onalespib],16.4,17

Compound,drug sensitivity score (MDA-MB-453 [1]),drug sensitivity score (MDA-MB-453 [2])
COC[C@H](NC(=O)c1cnc(C)s1)C(=O)N[C@@H](COC)C(=O)N[C@@H](Cc1ccccc1)C(=O)[C@@]1(C)CO1 [Oprozomib],12.3,14.8
CNC(=O)c1ccc2cc([C@@]3(O)CCn4cncc43)ccc2c1 [Orteronel],0,0
C=CC(=O)Nc1cc(Nc2nccc(-c3cn(C)c4ccccc34)n2)c(OC)cc1N(C)CCN(C)C [Osimertinib],10.4,8
O=C(O)C(=O)O.[NH-][C@@H]1CCCC[C@H]1[NH-].[Pt+2] [Oxaliplatin],7,8.2
C=CCc1cccc(/C=N/NC(=O)CN2CCN(Cc3ccccc3)CC2)c1O [PAC-1],4.9,4.4
O=C(Nc1cccnc1)N1CCC(Cc2cccc(Oc3ccc(C(F)(F)F)cn3)c2)CC1 [PF-3845],2.2,1.8
COc1ccccc1S(=O)(=O)Nc1ccc2c(c1)CN(C)C(=O)N2 [PFI-1],8.4,8.2
CN1CCN(c2cc(C(=O)Nc3ccc4c(c3)-c3c(c(C(N)=O)nn3-c3ccc(F)cc3)CC4)c(Cl)cn2)CC1 [PHA 408],3.4,4.9
O=C(Nc1cc(Cl)cc2c1[nH]c1cnccc12)c1cccnc1 [PS-1145],0.3,0
COc1cc(Br)c(Nc2nc(-c3c(C)nc4ncccn34)cs2)c(Br)c1 [PTC-209],2,3.2
CC(=O)O[C@H]1C(=O)[C@@]2(C)[C@H]([C@H](OC(=O)c3ccccc3)[C@]3(O)C[C@H](OC(=O)[C@H](O)[C@@H](NC(=O)c4ccccc4)c4ccccc4)C(C)=C1C3(C)C)[C@]1(OC(C)=O)CO[C@@H]1C[C@@H]2O [Paclitaxel],15.2,18.3
C1=N/C2=N/c3ccc(OCCN4CCCC4)c(c3)COC/C=C/COCc3cccc(c3)C(=C1)N2 [Pacritinib],10,8.3
CC(=O)c1c(C)c2cnc(Nc3ccc(N4CCNCC4)cn3)nc2n(C2CCCC2)c1=O [Palbociclib],4.8,2.5
COc1ccc(COc2cc3oc(=O)c4cc(C(C)O)ccc4c3cc2OC)cc1 (stereo not drawn) [Palomid-529],0,2
Cc1[nH]c2ccccc2c1CCNCc1ccc(/C=C/C(=O)NO)cc1 [Panobinostat],22.4,22.2
Cc1ccc(Nc2nccc(N(C)c3ccc4c(C)n(C)nc4c3)n2)cc1S(N)(=O)=O [Pazopanib],0,2.3
Nc1nc2[nH]cc(CCc3ccc(C(=O)N[C@@H](CCC(=O)O)C(=O)O)cc3)c2c(=O)[nH]1 [Pemetrexed],1.8,5.4
OC[C@H]1O[C@@H](n2cnc3c2N=CNC[C@H]3O)C[C@@H]1O [Pentostatin],0,1
CCCCCCCCCCCCCCCCCCOP(=O)([O-])OC1CC[N+](C)(C)CC1 [Perifosine],0,0
NS(=O)(=O)OC[C@@H]1C[C@@H](n2ccc3c(N[C@H]4CCc5ccccc54)ncnc32)C[C@@H]1O [Pevonedistat],3.3,7
FC(F)(F)c1ccc(CNc2ccc(Cc3c[nH]c4ncc(Cl)cc34)cn2)cn1 [Pexidartinib],0.1,1.2
CS(=O)(=O)N1CCN(Cc2cc3nc(-c4cccc5[nH]ncc45)nc(N4CCOCC4)c3s2)CC1 [Pictilisib],17.4,16.6
CC[C@@H]1C(=O)OC[C@@H]1Cc1cncn1C [Pilocarpine],0.2,1.2
CC(C)N(C[C@H]1O[C@@H](n2cnc3c(N)ncnc32)[C@H](O)[C@@H]1O)[C@H]1C[C@@H](CCc2nc3cc(C(C)(C)C)ccc3[nH]2)C1 [Pinometostat],0,0
Cc1ccc(=O)n(-c2ccccc2)c1 [Pirfenidone],0,0
NCCNc1ccc(NCCN)c2c1C(=O)c1ccncc1C2=O [Pixantrone],1,1
c1cc(CN2CCCNCCNCCCNCC2)ccc1CN1CCCNCCNCCCNCC1 [Plerixafor],0,0
